The text below walks through data of patent publication US12440584B2, “Macrocyclic ligands with pendant chelating moieties and complexes thereof” (LUMIPHORE, INC., priority 2018, dated 2025).

What all share (assay type): physicochemical
The nature of data set [1]: Luminescence titration of ligand 43 with europium chloride. To be noted: 383 nm (ligand), 357 nm (complex). Here is the method:
Titration of ligand 43 was also performed by luminescence (FIG. 5), monitoring the europium signal at 612 nm upon photoexcitation of the solution at 340 nm. The ligand solution used for the UV-vis titration of 43 mentioned above was first diluted 1:10 in TBS buffer. Similarly, the 1.299 mM stock europium solution was separately diluted 1:10 with water. […] The 32.99 μL equivalence point gives extinction coefficients of 14,400 M^−1 cm^−1 at 383 nm and 14,200 M^−1 cm^−1 at 357 nm for 43 and 43 Eu respectively. Averaging the values from both UV-vis and luminescence titration experiments of 43 yields extinction coefficients of 13,700 M^−1 cm^−1 at 383 nm and 13,500 M^−1 cm^−1 at 357 nm for 43 and 43 Eu respectively.

Data set [2] is described as follows: Photophysical characterization of Eu complexes (UV-vis, luminescence, quantum yield, lifetime). To be noted: TBS buffer, pH 7.6. As to the method: The europium complexes of ligands 16, 29, 33, 40, and 43 were prepared by separately dissolving each ligand (2 mg) into methanol (200 μL). Excess europium chloride hexahydrate (˜5 equivalents) was dissolved in methanol (200 μL) and the full volume was added to each of the ligand solutions. The solvent was removed, and the residue was dissolved into DMF (50 μL). The europium complexes were then purified by semi-prep HPLC on an Agilent 1260 Infinity instrument using an Eclipse XDB-C18 column (5 μm, 9.4×250 mm). The mobile phase was 10 to 30% acetonitrile in water containing 0.1% trifluoroacetic acid. The volatiles were removed from the HPLC eluents under vacuum, and the residues were separately dissolved into methanol (500 μL) to give methanolic stock solutions of each europium complex with greater than 98% purity. A few drops of these methanolic solutions were evaporated to dryness, and then the residue was dissolved into TBS buffer at a concentration of ca. 3 μM to make aqueous stock solutions (20 mL) with an absorbance of 0.05 (1 cm path length) at 365 nm. […] Quinine sulfate dissolved in 0.05 M sulfuric acid was similarly diluted to a final absorbance of 0.05 at 365 nm, and this solution was similarly (1/6, 2/6, 3/6, 4/6, and 5/6) diluted to afford six quinine sulfate reference samples of evenly spaced concentration. […] By measuring the absorbance and luminescence of these dilute solutions, the quantum yields of the new Eu complexes were determined. A 5 cm path-length quartz cell was used to measure the absorbance of these dilute solutions in order to improve the UV-vis signal-to-noise. Steady state photoluminescence measurements were collected in a 1 cm fluorescence cuvette at 365 nm excitation wavelength, 1 nm resolution, 10 nm excitation slit width, 1 nm emission slit width, and 0.2 sec integration time on an instrument that has been described elsewhere (D'Aleo, A.; Moore, E. G.; Szigethy, G.; Xu, J.; Raymond, K. N. Inorg. Chem. 2009, 48, 9316·). […]

Data set [3] in a line: UV-vis titration with europium chloride for extinction coefficients. Here is the method:
In order to determine accurate extinction coefficients for 16 and 16·Eu, titration experiments using europium chloride as the titrant were performed. Europium chloride hexahydrate (13.22 mg, 0.03608 mmol) was dissolved into 5 mM citrate buffer (pH=4) using a 100 mL volumetric flask to give a 0.3608 mM europium chloride solution, which was then titrated into a 0.5 mL solution of 16 in TBS buffer (Tris-buffered saline, 50 mM Tris, 150 mM NaCl, pH=7.6) using 5 μL aliquots. The UV-vis spectra were adjusted for the increase in solvent volume due to each injection. The results of the UV-vis titration are plotted in FIG. 3.
The volume of europium chloride corresponds to 16.70 nmol of europium, meaning the starting concentration of ligand 16 was 33.40 μM. […] These absorbance and concentration values yield extinction coefficients of 13,600 M^−1 cm^−1 and 14,300 M^−1 cm^−1 for the ligand 16 and the complex 16·Eu respectively.
In order to determine accurate extinction coefficients for 43 and 43 Eu, titration experiments using europium chloride as the titrant were performed. Europium chloride hexahydrate (47.58 mg, 0.1299 mmol) was dissolved into 50 mM citrate buffer (pH=4) using a 10 mL volumetric flask to give a 12.99 mM europium chloride solution, which was then transferred to a 100 mL volumetric flask and diluted 1:10 with water. The resulting 1.299 mM europium chloride solution (in 5 mM citrate buffer) was then titrated into a 1 mL solution of 43 in TBS buffer using 5 μL aliquots. The UV-vis spectra were adjusted for the increase in solvent volume due to each injection. The results of the UV-vis titration are plotted in FIG. 4.
The volume of europium chloride corresponds to 47.46 nmol of europium, meaning the starting concentration of ligand 43 was 47.46 μM. […] These absorbance and concentration values yield extinction coefficients of 13,000 M^−1 cm^−1 and 12,800 M^−1 cm^−1 for the ligand and complex respectively.

In the case of `NCCOCCNC(=O)C1CCCN(C(=O)c2cccc(=O)n2O)CCCNC(=O)c2ccc(n(O)c2=O)C(=O)N[C@@H]2COC[C@@H]2NC(=O)c2ccc(c(=O)n2O)C(=O)NCCCN1C(=O)c1cccc(=O)n1O` (some centres unmarked) [Compound 43], the “extinction coefficient, average of UV-vis and luminescence titrations” value in data set [1] was 13,700 M^−1 cm^−1. Also, in data set [1] (luminescence titration), the extinction coefficient is reported as 14,400 M^−1 cm^−1. Besides, in data set [2], the “ε260/ε at λmax” value is given as 1.96, the “ε280/ε at λmax” value turned out to be 1.27 and the λmax is reported as 383 nm. This molecule also displayed a lambda max in data set [3] (UV-vis titration, TBS buffer) of 383 nm. The extinction coefficient in data set [3] (UV-vis titration, at lambda max) is reported as 13,000 M^−1 cm^−1. Besides, the “ε at λmax” value in data set [3] (measured by europium titration, TBS buffer) is on record as 13,700 M^−1cm^−1.
